These results are taken from the NIST ThermoML archive (doi:10.1021/je800246v).

± gives the expanded uncertainty stated by the source.

This data set can be described thus: activity coefficient (dimensionless); of the first substance listed, at infinite dilution; xn = mol fraction of the nth substance listed. To be noted: 101 kPa, Liquid, Chromatography, x1 = 0.

In the case of `CCCC(C)O` (stereo unspecified) [pentan-2-ol] + CCCCn1cc[n+](C)c1.F[P-](F)(F)(F)(F)F, the activity coefficient was found to be 5.66 ± 0.59 (315.9 K), 4.99 ± 0.52 (325.3 K) and 4.38 ± 0.46 (334.8 K).
On the same counts, the results for `CCCCCO` [pentan-1-ol] + CCCCn1cc[n+](C)c1.F[P-](F)(F)(F)(F)F are 9.71 ± 1, 8.01 ± 0.84 and 6.47 ± 0.68.
Taken in the same sequence, the figures for `Cc1ccc(C)cc1` [1,4-dimethylbenzene] + CCCCn1cc[n+](C)c1.F[P-](F)(F)(F)(F)F were 2.27 ± 0.24, 2.24 ± 0.24 and 2.28 ± 0.24.
Taken in the same sequence, the figures for `Cc1ccccc1` [toluene] + CCCCn1cc[n+](C)c1.F[P-](F)(F)(F)(F)F were 1.71 ± 0.18, 1.59 ± 0.17 and 1.71 ± 0.18.
Take `CO` [methanol] + CCCCn1cc[n+](C)c1.F[P-](F)(F)(F)(F)F: the activity coefficient is, setting by setting: (315.9 K) 2.16 ± 0.23; (325.3 K) 1.95 ± 0.2; (334.8 K) 1.81 ± 0.19.
On the same counts, the results for `CCC(C)=O` [butanone] + CCCCn1cc[n+](C)c1.F[P-](F)(F)(F)(F)F are 0.987 ± 0.1, 0.99 ± 0.1 and 0.983 ± 0.1.
On the same counts, the results for `CC(C)=O` [acetone] + CCCCn1cc[n+](C)c1.F[P-](F)(F)(F)(F)F are 0.707 ± 0.074, 0.709 ± 0.074 and 0.699 ± 0.073.
Turning to `CCC(C)O` (stereo unspecified) [butan-2-ol] + CCCCn1cc[n+](C)c1.F[P-](F)(F)(F)(F)F, the activity coefficient by setting is: (315.9 K) 4.29 ± 0.45; (325.3 K) 3.78 ± 0.4; (334.8 K) 3.37 ± 0.35.
`CCCCO` [butan-1-ol] + CCCCn1cc[n+](C)c1.F[P-](F)(F)(F)(F)F: the activity coefficient runs as follows: (315.9 K) 5.59 ± 0.59; (325.3 K) 4.77 ± 0.5; (334.8 K) 4.24 ± 0.45.
With `CC(C)CCO` [3-methylbutan-1-ol] + CCCCn1cc[n+](C)c1.F[P-](F)(F)(F)(F)F, the activity coefficient turned out to be 7.71 ± 0.81 (315.9 K), 6.34 ± 0.67 (325.3 K) and 5.2 ± 0.55 (334.8 K).
As to `CCC(C)=O` [butanone] + CCCC[n+]1ccc(C)cc1.F[B-](F)(F)F, the activity coefficient was 1.53 ± 0.16 (306.6 K), 1.57 ± 0.16 (315.9 K) and 1.59 ± 0.17 (325.3 K).
With `Cc1cccc(C)c1` [1,3-dimethylbenzene] + CCCCn1cc[n+](C)c1.F[P-](F)(F)(F)(F)F, the activity coefficient reads like this: (315.9 K) 2.38 ± 0.25; (325.3 K) 2.43 ± 0.26; (334.8 K) 2.36 ± 0.25.
On the same counts, the results for `CCO` [ethanol] + CCCCn1cc[n+](C)c1.F[P-](F)(F)(F)(F)F are 3.02 ± 0.32, 2.69 ± 0.28 and 2.47 ± 0.26.
For `CO` [methanol] + CCCC[n+]1ccc(C)cc1.F[B-](F)(F)F, the activity coefficient was found to be 1.01 ± 0.1 (306.6 K), 0.98 ± 0.1 (315.9 K) and 0.907 ± 0.093 (325.3 K).
With `Cc1ccccc1C` [1,2-dimethylbenzene] + CCCCn1cc[n+](C)c1.F[P-](F)(F)(F)(F)F, the activity coefficient is 2.37 ± 0.25 (315.9 K), 2.21 ± 0.23 (325.3 K) and 2.2 ± 0.23 (334.8 K).
With `CC(C)CO` [2-methyl-1-propanol] + CCCCn1cc[n+](C)c1.F[P-](F)(F)(F)(F)F, the activity coefficient (315.9 K) amounted to 5.03 ± 0.53, the activity coefficient (325.3 K) was 4.38 ± 0.46 and the activity coefficient (334.8 K) amounted to 3.84 ± 0.4.
Taken in the same sequence, the figures for `CC(C)O` [propan-2-ol] + CCCCn1cc[n+](C)c1.F[P-](F)(F)(F)(F)F were 3.65 ± 0.38, 3.16 ± 0.33 and 2.85 ± 0.3.
Taken in the same sequence, the figures for `CC(=O)CC(C)=O` [2,4-pentanedione] + CCCCn1cc[n+](C)c1.F[P-](F)(F)(F)(F)F were 1.15 ± 0.12, 1.07 ± 0.11 and 1.03 ± 0.1.
On the same counts, the results for `CCC(O)CC` [3-pentanol] + CCCCn1cc[n+](C)c1.F[P-](F)(F)(F)(F)F are 4.7 ± 0.49, 4.14 ± 0.44 and 3.78 ± 0.4.
Take `CCCO` [propan-1-ol] + CCCCn1cc[n+](C)c1.F[P-](F)(F)(F)(F)F: the activity coefficient came to 4.01 ± 0.42 (315.9 K), 3.46 ± 0.36 (325.3 K) and 3.18 ± 0.33 (334.8 K).
As for `CCO` [ethanol] + CCCC[n+]1ccc(C)cc1.F[B-](F)(F)F, the activity coefficient reads like this: (306.6 K) 1.7 ± 0.18; (315.9 K) 1.62 ± 0.17; (325.3 K) 1.49 ± 0.15.
On the same counts, the results for `CC(C)=O` [acetone] + CCCC[n+]1ccc(C)cc1.F[B-](F)(F)F are 0.995 ± 0.1, 1.01 ± 0.1 and 1.03 ± 0.1.
